# Where a name gives a salt, the structure may show the parent alone.
# Assays:
# [1] = target: EZH2 Y641F mutant (PRC2 enzyme) (Homo sapiens (Human), UniProt Q15910, Y641F); assay: PRC2 enzyme assay on peptide substrate, EZH2 Y641F mutant (H3K27me2 peptide, 3H-SAM Flashplate); assay type: biochemical; details: Y641F mutant PRC2 4 nM
# [2] = tested on: WSU-DLCL2 cells; assay: Cell proliferation analysis, WSU-DLCL2 (Cell Titer Glo); assay type: cell-based; details: Homo sapiens, WSUDLCL2, 144 h, 6 days incubation, ATP readout
# Source text: Cell Proliferation Analysis
# WSU-DLCL2 suspension cells were purchased from DSMZ (German Collection of Microorganisms and Cell Cultures, Braunschweig, Germany), RPMI/Glutamax Medium, Penicillin-Streptomycin, Heat Inactivated Fetal Bovine Serum were purchased from Life Technologies, Grand Island, N.Y., USA, V-bottom polypropylene 384-well plates were purchased from Greiner Bio-One, Monroe, N.C., USA. Cell culture 384-well white opaque plates were purchased from Perkin Elmer, Waltham, Mass., USA. Cell-Titer Glo® was purchased from Promega Corporation, Madison, Wis., USA. SpectraMax M5 plate reader was purchased from Molecular Devices LLC, Sunnyvale, Calif., USA.
# WSU-DLCL2 suspension cells were maintained in growth medium (RPMI 1640 supplemented with 10% v/v heat inactivated fetal bovine serum and cultured at 37° C. under 5% CO2. Under assay conditions, cells were incubated in Assay Medium (RPMI 1640 supplemented with 20% v/v heat inactivated fetal bovine serum and 100 units/mL penicillin-streptomycin) at 37° C. under 5% CO2.
# For the assessment of the effect of compounds on the proliferation of the WSU-DLCL2 cell line, exponentially growing cells were plated in 384-well white opaque plates at a density of 1250 cell/ml in a final volume of 50 μl of assay medium. A compound source plate was prepared by performing triplicate nine-point 3-fold serial dilutions in DMSO, beginning at 10 mM (final top concentration of compound in the assay was 20 μM and the DMSO was 0.2%). A 100 nL aliquot from the compound stock plate was added to its respective well in the cell plate. […] After addition of compounds, assay plates were incubated for 6 days at 37° C., 5% CO2, relative humidity >90% for 6 days. Cell viability was measured by quantization of ATP present in the cell cultures, adding 35 μl of Cell Titer Glo® reagent to the cell plates. Luminescence was read in the SpectraMax M5. The concentration inhibiting cell viability by 50% was determined using a 4-parametric fit of the normalized dose response curves.
# [3] = target: wild-type EZH2 (PRC2 enzyme) (Homo sapiens (Human), UniProt Q15910); assay: PRC2 enzyme assay on peptide substrate, wild-type EZH2 (H3K27me0 peptide, 3H-SAM Flashplate); assay type: biochemical; details: wild-type PRC2 4 nM, read-out: WT EZH2 IC50
# wild-type EZH2 (PRC2 enzyme), sequence (Q15910 whole entry): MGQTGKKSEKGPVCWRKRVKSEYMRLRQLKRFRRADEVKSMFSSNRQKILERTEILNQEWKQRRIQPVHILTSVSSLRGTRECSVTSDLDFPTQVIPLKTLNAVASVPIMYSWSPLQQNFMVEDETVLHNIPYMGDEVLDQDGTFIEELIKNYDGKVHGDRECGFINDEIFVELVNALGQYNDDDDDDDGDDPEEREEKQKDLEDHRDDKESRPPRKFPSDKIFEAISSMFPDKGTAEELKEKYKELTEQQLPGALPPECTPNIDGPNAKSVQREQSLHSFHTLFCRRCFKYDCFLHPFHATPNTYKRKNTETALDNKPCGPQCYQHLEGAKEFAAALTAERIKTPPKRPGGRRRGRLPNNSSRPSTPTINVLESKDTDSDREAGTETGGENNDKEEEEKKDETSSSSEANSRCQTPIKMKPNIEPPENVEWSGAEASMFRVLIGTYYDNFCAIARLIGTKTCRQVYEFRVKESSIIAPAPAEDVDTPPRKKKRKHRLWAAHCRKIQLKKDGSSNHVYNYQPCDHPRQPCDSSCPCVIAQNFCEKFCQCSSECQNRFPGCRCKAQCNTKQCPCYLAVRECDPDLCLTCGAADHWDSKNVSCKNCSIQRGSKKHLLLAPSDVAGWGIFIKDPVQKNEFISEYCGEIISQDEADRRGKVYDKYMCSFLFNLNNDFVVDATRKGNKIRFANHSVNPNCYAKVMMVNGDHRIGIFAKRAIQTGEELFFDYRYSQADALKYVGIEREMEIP
# wild-type EZH2 (PRC2 enzyme), sequence (O75530 whole entry partner): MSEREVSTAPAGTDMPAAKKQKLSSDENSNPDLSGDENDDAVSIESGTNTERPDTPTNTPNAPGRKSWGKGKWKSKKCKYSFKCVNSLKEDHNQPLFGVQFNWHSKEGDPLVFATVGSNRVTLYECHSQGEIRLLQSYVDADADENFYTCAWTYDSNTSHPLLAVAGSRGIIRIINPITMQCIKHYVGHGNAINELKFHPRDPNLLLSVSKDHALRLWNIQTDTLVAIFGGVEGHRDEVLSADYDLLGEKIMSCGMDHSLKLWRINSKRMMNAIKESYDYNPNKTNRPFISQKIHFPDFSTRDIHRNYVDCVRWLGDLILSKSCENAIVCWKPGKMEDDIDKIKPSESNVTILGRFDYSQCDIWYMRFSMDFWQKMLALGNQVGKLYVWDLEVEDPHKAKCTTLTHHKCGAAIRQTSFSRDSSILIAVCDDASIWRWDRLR
# wild-type EZH2 (PRC2 enzyme), sequence (Q15022 whole entry partner): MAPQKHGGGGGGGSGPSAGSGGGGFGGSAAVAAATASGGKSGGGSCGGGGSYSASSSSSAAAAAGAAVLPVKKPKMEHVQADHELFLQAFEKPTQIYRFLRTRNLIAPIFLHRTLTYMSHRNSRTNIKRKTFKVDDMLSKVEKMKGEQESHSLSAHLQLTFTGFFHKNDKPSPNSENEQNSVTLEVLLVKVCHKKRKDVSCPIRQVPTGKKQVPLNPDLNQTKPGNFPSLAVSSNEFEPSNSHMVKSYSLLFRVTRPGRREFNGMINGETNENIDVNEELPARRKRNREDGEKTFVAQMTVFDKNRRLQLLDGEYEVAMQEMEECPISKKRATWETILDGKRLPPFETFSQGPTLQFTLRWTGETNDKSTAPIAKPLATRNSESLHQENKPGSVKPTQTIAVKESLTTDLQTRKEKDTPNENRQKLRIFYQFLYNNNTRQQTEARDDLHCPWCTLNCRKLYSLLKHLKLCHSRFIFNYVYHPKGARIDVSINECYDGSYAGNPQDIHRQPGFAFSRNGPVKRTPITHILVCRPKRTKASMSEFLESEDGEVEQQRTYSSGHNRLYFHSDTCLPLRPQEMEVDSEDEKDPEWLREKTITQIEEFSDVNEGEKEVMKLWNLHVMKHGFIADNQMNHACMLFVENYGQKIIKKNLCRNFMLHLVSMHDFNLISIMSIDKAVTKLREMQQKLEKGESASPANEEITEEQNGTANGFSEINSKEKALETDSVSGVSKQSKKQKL
# wild-type EZH2 (PRC2 enzyme), sequence (Q09028 whole entry partner): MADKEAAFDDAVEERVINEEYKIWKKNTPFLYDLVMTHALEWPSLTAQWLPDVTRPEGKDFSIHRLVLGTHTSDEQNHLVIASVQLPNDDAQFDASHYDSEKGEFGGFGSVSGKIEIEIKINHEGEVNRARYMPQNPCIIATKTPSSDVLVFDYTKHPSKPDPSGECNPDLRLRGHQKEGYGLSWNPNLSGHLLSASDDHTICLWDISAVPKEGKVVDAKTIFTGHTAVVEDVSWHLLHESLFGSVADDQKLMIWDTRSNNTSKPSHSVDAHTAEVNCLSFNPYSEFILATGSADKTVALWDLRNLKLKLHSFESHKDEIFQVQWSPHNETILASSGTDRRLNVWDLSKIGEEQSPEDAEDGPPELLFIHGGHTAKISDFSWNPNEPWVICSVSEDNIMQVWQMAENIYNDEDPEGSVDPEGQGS
# [4] = tested on: H3K27me3 in WSU-DLCL2 cells; assay: WSU-DLCL2 methylation assay (H3K27me3 ELISA); assay type: cell-based, human; details: Homo sapiens, WSUDLCL2, 96 hours incubation, H3K27me3 normalised to total H3
# Source text: WSU-DLCL2 Methylation Assay
# WSU-DLCL2 suspension cells were purchased from DSMZ (German Collection of Microorganisms and Cell Cultures, Braunschweig, Germany). RPMI/Glutamax Medium, Penicillin-Streptomycin, Heat Inactivated Fetal Bovine Serum, and D-PBS were purchased from Life Technologies, Grand Island, N.Y., USA. Extraction Buffer and Neutralization Buffer (5×) were purchased from Active Motif, Carlsbad, Calif., USA. Rabbit anti-Histone H3 antibody was purchased from Abcam, Cambridge, Mass., USA. Rabbit anti-H3K27me3 and HRP-conjugated anti-rabbit-IgG were purchased from Cell Signaling Technology, Danvers, Mass., USA. TMB “Super Sensitive” substrate was sourced from BioFX Laboratories, Owings Mills, Md., USA. IgG-free Bovine Serum Albumin was purchased from Jackson ImmunoResearch, West Grove, Pa., USA. PBS with Tween (10×PBST) was purchased from KPL, Gaithersburg, Md., USA. Sulfuric Acid was purchased from Ricca Chemical, Arlington, Tex., USA. Immulon ELISA plates were purchased from Thermo, Rochester, N.Y., USA. V-bottom cell culture plates were purchased from Corning Inc., Corning, N.Y., USA. V-bottom polypropylene plates were purchased from Greiner Bio-One, Monroe, N.C., USA.
# WSU-DLCL2 suspension cells were maintained in growth medium (RPMI 1640 supplemented with 10% v/v heat inactivated fetal bovine serum and 100 units/mL penicillin-streptomycin) and cultured at 37° C. under 5% CO2. Under assay conditions, cells were incubated in Assay Medium (RPMI 1640 supplemented with 20% v/v heat inactivated fetal bovine serum and 100 units/mL penicillin-streptomycin) at 37° C. under 5% CO2 on a plate shaker.
# WSU-DLCL2 cells were seeded in assay medium at a concentration of 50,000 cells per mL to a 96-well V-bottom cell culture plate with 200 μL per well. […] Plates were incubated on a titer-plate shaker at 37° C., 5% CO2 for 96 hours. After four days of incubation, plates were spun at 241×g for five minutes and medium was aspirated gently from each well of cell plate without disturbing cell pellet. Pellet was resuspended in: 200 μL DPBS and plates were spun again at 241×g for five minutes. The supernatant was aspirated and cold (4° C.) Extraction buffer (100 μL) was added per well. Plates were incubated at 4° C. on orbital shaker for two hours. Plates were spun at 3427×g×10 minutes. Supernatant (80 μL per well) was transferred to its respective well in 96 well V-bottom polypropylene plate. Neutralization Buffer 5× (20 μL per well) was added to V-bottom polypropylene plate containing supernatant. V-bottom polypropylene plates containing crude histone preparation (CHP) were incubated on orbital shaker×five minutes. Crude Histone Preparations were added (2 μL per well) to each respective well into duplicate 96 well ELISA plates containing 100 μL Coating Buffer (1×PBS+BSA 0.05% w/v). Plates were sealed and incubated overnight at 4° C. The following day, plates were washed three times with 300 μL per well 1×PBST. […] For H3K27me3 detection, 100 μL of HRP conjugated anti-rabbit IgG antibody diluted to 1:4000 in ELISA diluent was added per well. Plates were incubated at room temperature for 90 minutes. […] TMB substrate 100 μL was added per well. Histone H3 plates were incubated for five minutes at room temperature. H3K27me3 plates were incubated for 10 minutes at room temperature. The reaction was stopped with sulfuric acid 1N (100 μL per well). Absorbance for each plate was read at 450 nm.
# Each plate included eight control wells DMSO only treatment (Minimum Inhibition) as well as eight control wells for maximum inhibition (Background wells).
# The average of the ratio values for each control type was calculated and used to determine the percent inhibition for each test well in the plate. Test compound was serially diluted three-fold in DMSO for a total of ten test concentrations, beginning at 25 μM.
# EZH2 Y641F mutant (PRC2 enzyme), sequence (Q15910 whole entry Y641F): as the sequence (Q15910 whole entry) above, with Y641F counted along it
# EZH2 Y641F mutant (PRC2 enzyme), sequence (O75530 whole entry partner): as the sequence (O75530 whole entry partner) above
# EZH2 Y641F mutant (PRC2 enzyme), sequence (Q15022 whole entry partner): as the sequence (Q15022 whole entry partner) above
# EZH2 Y641F mutant (PRC2 enzyme), sequence (Q09028 whole entry partner): as the sequence (Q09028 whole entry partner) above
SMILES,IC50 [1],IC50 [2],IC50 [3],IC50 [4]
"CCN(c1cc(Cl)cc(C(=O)NCc2c(=O)[nH]n3cccnc23)c1C)[C@H]1CC[C@H](N(C)C)CC1 [Compound 51, 5-chloro-3-(((trans)-4-(dimethylamino)cyclohexyl)(ethyl)amino)-2-methyl-N-((2-oxo-1,2-dihydropyrazolo-[1,5-a]-pyrimidin-3-yl)methyl)benzamide]",573 nM,> 20000 nM,2870 nM,
"CCN(c1cc(-c2ccc(OCCOC)cc2)cc(C(=O)NCc2c(C)n(C)[nH]c2=O)c1C)[C@H]1CC[C@H](N(C)C)CC1 [Compound 59, N-((1,5-dimethyl-3-oxo-2,3-dihydro-1H-pyrazol-4-yl)methyl)-5-(((trans)-4-(dimethylamino)cyclohexyl)(ethyl)amino)-4′-(2-methoxyethoxy)-4-methyl-[1,1′-biphenyl]-3-carboxamide]",,> 20000 nM,,> 50000 nM
"CCN(c1cc(-c2ccc(OCCOC)cc2)cc(C(=O)NCc2c(C)[nH]n(C)c2=O)c1C)[C@H]1CC[C@H](N(C)C)CC1 [Compound 35, N-((2,5-dimethyl-3-oxo-2,3-dihydro-1H-pyrazol-4-yl)methyl)-5-(((trans)-4-(dimethylamino)cyclohexyl)(ethyl)amino)-4′-(2-methoxyethoxy)-4-methyl-[1,1′-biphenyl]-3-carboxamide]",63 nM,> 20000 nM,267 nM,17900 nM
"CCN(c1cc(Cl)cc(C(=O)NCc2c(C)[nH]n(C)c2=O)c1C)[C@H]1CC[C@H](N(C)C)CC1 [Compound 34, 5-chloro-N-((2,5-dimethyl-3-oxo-2,3-dihydro-1H-pyrazol-4-yl)methyl)-3-(((trans)-4-(dimethylamino)cyclohexyl)(ethyl)amino)-2-methylbenzamide]",110 nM,6920 nM,223 nM,18600 nM
"CCOc1n[nH]c(C)c1CNC(=O)c1cc(Cl)cc(N(CC)[C@H]2CC[C@H](N(C)C)CC2)c1C [Compound 85, 5-chloro-3-(((trans)-4-(dimethylamino)cyclohexyl)(ethyl)amino)-N-((3-ethoxy-5-methyl-1H-pyrazol-4-yl)methyl)-2-methylbenzamide]",7520 nM,6380 nM,35200 nM,> 50000 nM
"CCN(c1cc(Cl)cc(C(=O)NCc2c(C)[nH][nH]c2=O)c1C)[C@H]1CC[C@H](N(C)C)CC1 [Compound 32, 5-chloro-3-(ethyl((trans)-4-(dimethylamino)cyclohexyl)amino)-2-methyl-N-((5-methyl-3-oxo-2,3-dihydro-1H-pyrazol-4-yl)methyl]benzamide Formate]",15 nM,11500 nM,68 nM,15400 nM
"CCn1[nH]c(=O)c(CNC(=O)c2cc(Cl)cc(N(CC)[C@H]3CC[C@H](N(C)C)CC3)c2C)c1C [Compound 52, 5-chloro-3-(((trans)-4-(dimethylamino)cyclohexyl)(ethyl)amino)-N-((1-ethyl-5-methyl-3-oxo-2,3-dihydro-1H-pyrazol-4-yl)methyl)-2-methylbenzamide]",30 nM,7340 nM,367 nM,3040 nM
"CCN(c1cc(Cl)cc(C(=O)NCc2c(C)n(C)[nH]c2=O)c1C)[C@H]1CC[C@H](N(C)Cc2ccc(OC)cc2)CC1 [Compound 56, 5-chloro-N-((1,5-dimethyl-3-oxo-2,3-dihydro-1H-pyrazol-4-yl)methyl)-3-(ethyl((trans)-4-((4-methoxybenzyl)(methyl)amino)cyclohexyl)amino)-2-methylbenzamide]",11 nM,10700 nM,25 nM,4680 nM
"CCn1[nH]c(C)c(CNC(=O)c2cc(Cl)cc(N(CC)[C@H]3CC[C@H](N(C)C)CC3)c2C)c1=O [Compound 36, 5-chloro-3-(((trans)-4-(dimethylamino)cyclohexyl)(ethyl)amino)-N-((2-ethyl-5-methyl-3-oxo-2,3-dihydro-1H-pyrazol-4-yl)methyl)-2-methylbenzamide]",114 nM,> 20000 nM,829 nM,7970 nM
"CCN(c1cc(Cl)cc(C(=O)NCc2c(N3CCCC3)n(C)[nH]c2=O)c1C)[C@H]1CC[C@H](N(C)C)CC1 [Compound 81, 5-chloro-3-(((trans)-4-(dimethylamino)cyclohexyl) (ethyl)amino)-2-methyl-N-((1-methyl-3-oxo-5-(pyrrolidin-1-yl)-2,3-dihydro-1H-pyrazol-4-yl)methyl)benzamide]",5 nM,1260 nM,18 nM,2190 nM
"CCn1nc(OC)c(CNC(=O)c2cc(Cl)cc(N(CC)[C@H]3CC[C@H](N(C)Cc4ccc(OC)cc4)CC3)c2C)c1C [Compound 70, 5-chloro-3-(ethyl((trans)-4-((4-methoxybenzyl)-(methyl)-amino)-cyclohexyl)-amino)-N-((1-ethyl-3-methoxy-5-methyl-1H-pyrazol-4-yl)methyl)-2-methylbenzamide]",12 nM,3610 nM,39 nM,4060 nM
"CCn1[nH]c(=O)c(CNC(=O)c2cc(Cl)cc(N(CC)[C@H]3CC[C@H](N(C)Cc4cccc(OC)c4)CC3)c2C)c1C [Compound 63, 5-chloro-3-(ethyl ((trans)-4-((3-methoxybenzyl)-(methyl)-amino)-cyclohexyl)amino)-N-((1-ethyl-5-methyl-3-oxo-2,3-dihydro-1H-pyrazol-4-yl)methyl)-2-methylbenzamide]",12 nM,1550 nM,46 nM,> 50000 nM
"CCN(c1cc(Cl)cc(C(=O)NCc2c(C)n(C)[nH]c2=O)c1C)[C@H]1CC[C@H](N(C)Cc2cccc(OC)c2)CC1 [Compound 57, 5-chloro-N-((1,5-dimethyl-3-oxo-2,3-dihydro-1H-pyrazol-4-yl)methyl)-3-(ethyl((trans)-4-((3-methoxybenzyl)(methyl)amino)cyclohexyl)amino)-2-methylbenzamide]",10 nM,6050 nM,20 nM,6160 nM
"CCN(c1cc(Cl)cc(C(=O)NCc2c(OC)n(C)[nH]c2=O)c1C)[C@H]1CC[C@H](N(C)C)CC1 [Compound 86, 5-chloro-3-(ethyl((trans)-4-(dimethylamino)cyclohexyl]amino)-N-((5-methoxy-1-methyl-3-oxo-2,3-dihydro-1H-pyrazol-4-yl)methyl)-2-methylbenzamide]",1 nM,1130 nM,21 nM,1790 nM
"CCc1[nH]n(C)c(=O)c1CNC(=O)c1cc(Cl)cc(N(CC)[C@H]2CC[C@H](N(C)C)CC2)c1C [Compound 38, 5-chloro-3-(((trans)-4-(dimethylamino)cyclohexyl)(ethyl)amino)-N-((5-ethyl-2-methyl-3-oxo-2,3-dihydro-1H-pyrazol-4-yl)methyl)-2-methylbenzamide]",265 nM,> 20000 nM,3370 nM,18100 nM
